{
  "source": "patent US20260007674A1",
  "about": "“Novel Chemotypes for Treating Parasitic Diseases and Methods of Use” (The Medical College of Wisconsin, Inc., priority 2022, published 2026)",
  "key": {"S. mansoni [1]": {"tested_on": "S. mansoni", "assay": "Adult schistosome movement assay ex vivo (contraction and paralysis)", "type": "cell-based, Schistosoma mansoni", "procedure": "It was observed that N-amidoquinazolinones contract S. mansoni in a manner similar to the channel activator (and standard of treatment) praziquantel. Adult schistosomes were harvested from the mesenteric vasculature of female Swiss Webster mice previously infected (˜49 days earlier). Harvested schistosomes were washed in RPMI 1640 supplemented with 5% heat inactivated FBS, HEPES, and penicillin-streptomycin. After isolation, worms were incubated overnight in vented petri dishes. Movement assays were performed using male and female worms in six well dishes (˜5 individual worms/3 ml media per well). Schistosomes were treated with a molecule such as compound 4, and video recordings of worm motility were captured using a stereomicroscope coupled to a CCD camera. […] It was also observed that 2-amidoacrylates or 2-amidoacrylamides contract S. mansoni in a manner similar to the channel activator (and standard of treatment) praziquantel. The worm mobility assay performed in FIG. 13 is same as that performed in FIG. 3. Briefly, adult schistosomes were harvested from the mesenteric vasculature of female Swiss Webster mice previously infected (˜49 days earlier). Harvested schistosomes were washed in RPMI 1640 supplemented with 5% heat inactivated FBS, HEPES, and penicillin-streptomycin. After isolation, worms were incubated overnight in vented petri dishes. […]"}, "Fasciola hepatica": {"tested_on": "Fasciola hepatica", "assay": "Ex vivo treatment of immature and adult F. hepatica (contraction, motility, viability)", "type": "cell-based", "procedure": "Briefly, Male Wistar rats served as the final host to obtain immature and adult stages of F. hepatica after infection with metacercariae from an Italian strain of F. hepatica. Immature flukes were collected from livers 4 weeks post-infection. Adult flukes were collected from bile ducts at 12 weeks post-infection. Worms were kept for 1 h in normal saline to allow clearance of gut contents and then used for experiments. In vitro experiments were performed utilizing a similar procedure as previously reported. Excised worms were treated with different concentrations of praziquantel, triclabendazole, BZQ/S55, S5, and S69, or DMSO as a negative control. The flukes were incubated at 37° C. in a 5% CO2 atmosphere for 72 h, and inhibitor-induced effects on worm viability were assessed using a stereomicroscope at 10× magnification. Worm motility was assessed using the following scores: 3 (normal motility), 2 (reduced motility), 1 (minimal and sporadic movements), and 0 (no movement even upon mechanical stimulation with forceps; considered dead). Representative results from these studies are shown FIGS. 17A-L."}, "S. mansoni [2]": {"tested_on": "S. mansoni", "assay": "Electron microscopy of tegument of treated S. mansoni", "type": "cell-based, Schistosoma mansoni", "details": "FIG. 17H, 17I"}, "F. hepatica": {"tested_on": "F. hepatica", "assay": "Electron microscopy of tegument of treated F. hepatica", "type": "cell-based, Fasciola hepatica", "details": "FIGS. 17K and 17L", "from_the_text": "FIGS. 17A-L show representative BZQ/S55 ex vivo activities on Fasciola hepatica adults and immature worms."}, "S. mansoni [3]": {"tested_on": "S. mansoni", "assay": "Murine model of schistosomiasis, worm burden", "type": "in vivo, mice", "details": "50 mg/kg intraperitoneal 1× daily for 3 days, FIG. 16; for worm burden: Female Swiss Webster mice, 7 weeks post-infection, recovery four days after first treatment", "procedure": "(§1) All animal experiments followed ethical regulations approved by the MCW IACUC committee. At 7 weeks post-infection, mice were randomly sorted into 4 groups of 13 mice. One group was left untreated as a control. A second group was treated with vehicle (a mixture of DMSO/PEG400/H2O). A third group was treated with praziquantel (50 mg/kg, intraperitoneal, 1× daily) for 3 days in a row. In addition, a fourth group was treated with BZQ/S55 in the same fashion as praziquantel. Four days after the first treatment, the mice were euthanized, and the mesenteric vasculature was dissected in the usual fashion to recover schistosomes. The worm burden from each mouse was individually plotted (FIG. 16). There was no significant difference between untreated mice and mice treated with vehicle, confirming that the vehicle the drugs were dosed in had no effect on worm burden."}, "[4]": {"assay": "Toxicity observation in treated mice of the schistosomiasis model", "type": "in vivo", "details": "50 mg/kg intraperitoneal 1× daily for 3 days", "procedure": "as §1"}},
  "note": "Entries after “also recorded” stand apart in the source; their conditions may differ.",
  "data": [
    {"smiles": "O=C(Nn1c(-c2cccc(Cl)c2)nc2ccccc2c1=O)c1ccccc1", "note": "[BZQ/S55, N-(2-(3-chlorophenyl)-4-oxoquinazolin-3(4H)-yl)benzamide]", "values": [
      {"measurement": "effect on Schistosomes", "setting": "S. mansoni [1]; treated with BZQ/S55, FIG. 17C", "result": "mimics praziquantel on schistosomes; also recorded: Rapid, sustained contraction and paralysis"},
      {"measurement": "ex vivo activity on Fasciola hepatica adults and immature worms", "setting": "Fasciola hepatica; immature (4 weeks post-infection) and adult (12 weeks) flukes from rats", "result": "active ex vivo"},
      {"measurement": "effect on Fasciola hepatica", "setting": "Fasciola hepatica; treated with BZQ/S55, FIG. 17C", "result": "Rapid, sustained contraction and paralysis"},
      {"measurement": "tegument of S. mansoni in electron microscopy image", "setting": "S. mansoni [2]", "result": "tegument was destroyed"},
      {"measurement": "tegument of F. hepatica in electron microscopy image", "setting": "F. hepatica", "result": "notable tegument damage"},
      {"measurement": "efficacy compared with praziquantel, the standard of treatment", "setting": "S. mansoni [3]", "result": "as effective as praziquantel"},
      {"measurement": "worm burden", "setting": "S. mansoni [3]", "result": "significant reduction in worm burden"},
      {"measurement": "toxicity", "setting": "[4]", "result": "no toxicity was noticed"}
    ]},
    {"smiles": "O=C(C1CCCCC1)N1CC(=O)N2CCc3ccccc3C2C1", "note": "(stereo not drawn) [Praziquantel, praziquantel, reference compound]", "values": [
      {"measurement": "effect on Schistosomes", "setting": "S. mansoni [1]; Praziquantel 500 nM, FIG. 17A", "result": "rapid, spastic paralysis"},
      {"measurement": "effect on Fasciola hepatica", "setting": "Fasciola hepatica; praziquantel 50 μM, FIG. 17B", "result": "Neither treatment has an effect"},
      {"measurement": "tegument of S. mansoni in electron microscopy image", "setting": "S. mansoni [2]", "result": "tegument was destroyed"},
      {"measurement": "worm burden", "setting": "S. mansoni [3]", "result": "significant reduction in worm burden"}
    ]}
  ]
}
